Data reported in ChEMBL document CHEMBL5338826, “Design and Synthesis of Inhibitors of the E3 Ligase SMAD Specific E3 Ubiquitin Protein Ligase 1 as a Treatment for Lung Remodeling in Pulmonary Arterial Hypertension” (J Med Chem, 2023).
Values after ≈ are worked out from the molar mass of the structure shown. Active and inactive are the calls of the source. No cut-off for these calls is given here.

Key:
[1] = biological target: T1, E3 ubiquitin-protein ligase SMURF1 (Homo sapiens, UniProt Q9HCE7); assay: Inhibition of SMURF1 (unknown origin) assessed as self-ubiquitination by TR-FRET/biochemical assay
[2] = biological target: T1, E3 ubiquitin-protein ligase SMURF1; assay: Stabilization of SMURF1 (unknown origin) assessed as decrease in auto-ubiquitination by measuring increase in protein level by cell-based assay
[3] = Equilibrium solubility of the compound at pH 6.8; type: physicochemical; conditions: buffer
[4] = Metabolic stability in rat liver microsomes assessed as half life; type: ADME, Microsome
[5] = biological target: E3 ubiquitin-protein ligase SMURF2 (Homo sapiens, UniProt Q9HAU4); assay: Inhibition of SMURF2 (unknown origin) assessed as self-ubiquitination by TR-FRET/biochemical assay
[6] = species on record: Rattus norvegicus; assay: Anti-remodeling efficacy in hypoxia/Sugen 5416-induced pulmonary arterial hypertension rat model assessed as muscularized vessels in the pulmonary vasculature measured after 14 days relative to control; type: functional; conditions: time 14 day
[7] = species on record: Rattus norvegicus; assay: Anti-remodeling efficacy in hypoxia/Sugen 5416-induced pulmonary arterial hypertension rat model assessed as reversal of vessel muscularization in the pulmonary vasculature measured after 14 days relative to control; type: functional, organism-based; conditions: time 14.0 day
[8] = species on record: Rattus norvegicus; assay: Anti-remodeling efficacy in hypoxia/Sugen 5416-induced pulmonary arterial hypertension rat model assessed as blocked of progression of phenotype of muscularization in the pulmonary vasculature measured after 14 days relative to control; type: functional, organism-based; conditions: time 14.0 day
[9] = Plasma protein binding in rat; type: ADME, cell-free; conditions: read-out: PPB
[10] = Oral bioavailability in rat at 3 mg/kg; type: ADME, organism-based; conditions: in vivo
[11] = AUClast in rat at 3 mg/kg, po; type: ADME, organism-based; conditions: in vivo
[12] = Cmax in rat at 3 mg/kg, po; type: ADME, organism-based; parameters: dose 3 mg/kg, route po; conditions: in vivo
[13] = Half life in rat at 3 mg/kg, po and 1 mg/kg, iv; type: ADME, organism-based; conditions: in vivo
[14] = Volume of distribution at steady state in rat at 3 mg/kg, po and 1 mg/kg, iv; type: ADME, organism-based; conditions: in vivo
[15] = system: Rattus norvegicus; assay: Anti-remodeling efficacy in hypoxia/Sugen 5416-induced pulmonary arterial hypertension rat model assessed as muscularized vessels in the pulmonary vasculature at 10 mg/kg measured after 14 days relative to control; type: functional; conditions: time 14 day
[16] = system: Rattus norvegicus; assay: Anti-remodeling efficacy in hypoxia/Sugen 5416-induced pulmonary arterial hypertension rat model assessed as muscularized vessels in the pulmonary vasculature at 10 mg/kg measured till end of the study relative to control; type: functional
[17] = system: Rattus norvegicus; assay: Anti-remodeling efficacy in hypoxia/Sugen 5416-induced pulmonary arterial hypertension rat model assessed as blocked of progression of phenotype of muscularization in the pulmonary vasculature at 3 mg/kg measured after 14 days relative to control; type: functional, organism-based; conditions: time 14.0 day
[18] = system: Rattus norvegicus; assay: Anti-remodeling efficacy in hypoxia/Sugen 5416-induced pulmonary arterial hypertension rat model assessed as blocked of progression of phenotype of muscularization in the pulmonary vasculature at 10 mg/kg measured after 14 days relative to control; type: functional, organism-based; conditions: time 14.0 day
[19] = system: Rattus norvegicus; assay: Anti-remodeling efficacy in hypoxia/Sugen 5416-induced pulmonary arterial hypertension rat model assessed as reversal of vessel muscularization in the pulmonary vasculature at 3 mg/kg measured after 14 days relative to control; type: functional, organism-based; conditions: time 14.0 day
[20] = system: Rattus norvegicus; assay: Anti-remodeling efficacy in hypoxia/Sugen 5416-induced pulmonary arterial hypertension rat model assessed as reversal of vessel muscularization in the pulmonary vasculature at 10 mg/kg measured after 14 days relative to control; type: functional, organism-based; conditions: time 14.0 day

T1 sequence (Q9HCE7 whole entry): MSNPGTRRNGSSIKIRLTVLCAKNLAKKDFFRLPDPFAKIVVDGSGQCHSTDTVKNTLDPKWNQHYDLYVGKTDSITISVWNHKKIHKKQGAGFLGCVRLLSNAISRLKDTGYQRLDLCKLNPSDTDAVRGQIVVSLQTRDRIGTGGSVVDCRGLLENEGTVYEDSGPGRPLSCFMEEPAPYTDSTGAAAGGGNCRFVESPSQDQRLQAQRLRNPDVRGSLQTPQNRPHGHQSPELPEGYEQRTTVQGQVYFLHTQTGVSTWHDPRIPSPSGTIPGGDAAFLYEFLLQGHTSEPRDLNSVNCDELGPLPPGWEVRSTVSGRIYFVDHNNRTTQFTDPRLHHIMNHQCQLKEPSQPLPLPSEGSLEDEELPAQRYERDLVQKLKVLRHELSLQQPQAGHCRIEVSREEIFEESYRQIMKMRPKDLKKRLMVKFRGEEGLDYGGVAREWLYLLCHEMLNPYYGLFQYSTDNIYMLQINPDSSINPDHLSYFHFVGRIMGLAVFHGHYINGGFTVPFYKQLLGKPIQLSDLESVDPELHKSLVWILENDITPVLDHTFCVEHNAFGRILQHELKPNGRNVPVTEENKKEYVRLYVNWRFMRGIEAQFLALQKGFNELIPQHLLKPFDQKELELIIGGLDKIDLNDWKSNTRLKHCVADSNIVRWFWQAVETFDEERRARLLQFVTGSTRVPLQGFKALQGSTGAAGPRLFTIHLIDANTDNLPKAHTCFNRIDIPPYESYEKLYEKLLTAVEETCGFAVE
Chain of E3 ubiquitin-protein ligase SMURF2 (Q9HAU4 whole entry): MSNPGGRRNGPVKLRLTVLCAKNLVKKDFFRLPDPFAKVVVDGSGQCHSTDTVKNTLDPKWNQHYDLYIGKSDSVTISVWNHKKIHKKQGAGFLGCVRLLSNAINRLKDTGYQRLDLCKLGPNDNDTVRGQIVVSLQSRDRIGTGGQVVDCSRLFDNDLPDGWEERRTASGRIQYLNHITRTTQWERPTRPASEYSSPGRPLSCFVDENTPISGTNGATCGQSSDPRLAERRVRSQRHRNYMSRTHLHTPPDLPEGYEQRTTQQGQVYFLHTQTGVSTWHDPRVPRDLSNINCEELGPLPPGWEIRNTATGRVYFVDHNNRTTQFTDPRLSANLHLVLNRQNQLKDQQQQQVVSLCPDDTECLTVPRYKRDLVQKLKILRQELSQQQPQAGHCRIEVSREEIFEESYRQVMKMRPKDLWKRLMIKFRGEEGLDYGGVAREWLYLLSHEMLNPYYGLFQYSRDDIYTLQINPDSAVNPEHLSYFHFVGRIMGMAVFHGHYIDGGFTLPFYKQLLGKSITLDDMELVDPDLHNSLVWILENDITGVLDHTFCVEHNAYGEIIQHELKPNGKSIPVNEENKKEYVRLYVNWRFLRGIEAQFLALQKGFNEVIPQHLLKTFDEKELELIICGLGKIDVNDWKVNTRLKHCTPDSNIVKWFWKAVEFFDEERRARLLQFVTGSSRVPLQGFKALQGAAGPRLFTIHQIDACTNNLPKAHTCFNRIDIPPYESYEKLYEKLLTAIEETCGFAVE

IC50 [1] [nM] | EC50 [2] [nM] | solubility thermodynamic [3] [µM] | half-life [4] [min] | Compound | further results
180 | 580 | 140 (≈ 61.7 µg/mL) | 70.5 | Cc1c(C(=O)Nc2c(C)n(C)n(-c3ccccc3F)c2=O)noc1-c1ccc(Cl)cc1 | 
3000 | 4660 |  |  | COc1ccc2c(c1)CCc1c(C(=O)Nc3c(C)n(C)n(-c4ccccc4)c3=O)noc1-2 | IC50 [5]: > 10000 nM
700 | 1100 | 530 (≈ 243 µg/mL) | 30.7 | Cc1c(C(=O)Nc2c(C)n(C)n(-c3ccccc3F)c2=O)noc1-c1ccc(Cl)cc1F | 
 |  |  |  | NC(=O)c1ccc(-c2nc(-c3ccccn3)c(-c3ccc4c(c3)OCO4)[nH]2)cc1 [SB-431542] | Activity [6]: 15%; Activity [7]: inactive; Activity [8]: Active
280 | 2500 |  |  | Cc1c(C(=O)Nc2c(C)n(C)n(-c3ccccc3F)c2=O)noc1-c1cc(Cl)ccc1Cl | 
> 10000 |  |  |  | COc1cc2ccc3c(C(=O)Nc4c(C)n(C)n(-c5ccccc5)c4=O)noc3c2cc1OC | 
 | 40 | 24 (≈ 6.66 µg/mL) |  | Cc1c(C(=O)O)noc1-c1ccc(C2CC2)cc1Cl | IC50 [5]: 2900 nM; fraction unbound [9]: < 0.01; bioavailability [10]: 67%; AUClast [11]: 2.78 µM·h; Cmax [12]: 541 nM; half-life [13]: 96 min; Vdss [14]: 1.7 L/kg
400 | 1100 |  |  | COc1ccc2c(c1)CCCc1c(C(=O)Nc3c(C)n(C)n(-c4ccccc4)c3=O)noc1-2 | 
180 | 250 | 280 (≈ 126 µg/mL) | 45.2 | COc1ccc(-c2onc(C(=O)Nc3c(C)n(C)n(-c4ccccc4F)c3=O)c2C)c(C)c1 | 
 | 316 | 190 (≈ 89.1 µg/mL) |  | Cc1c(C(=O)Nc2c(C)n(C)n(C3CCCCC3)c2=O)nnn1-c1ccc(C2CC2)cc1Cl | IC50 [5]: > 20000 nM; fraction unbound [9]: < 0.01; bioavailability [10]: 82%; AUClast [11]: 7.38 µM·h; Cmax [12]: 2010 nM; half-life [13]: 474 min; Vdss [14]: 2.3 L/kg; Activity [15]: 10%; Activity [16]: 18%
11 | 230 |  | 18.9 | Cc1c(C(=O)Nc2c(C)n(C)n(-c3ccccc3F)c2=O)noc1-c1ccc(C2CC2)cc1Cl | fraction unbound [9]: < 0.01; bioavailability [10]: 97%; AUClast [11]: 11.6 µM·h; Cmax [12]: 1080 nM; half-life [13]: 114 min; Vdss [14]: 1.5 L/kg; Activity [17]: Active; Activity [18]: Active; Activity [19]: Active; Activity [20]: Active
29 | 410 | 13 (≈ 6.18 µg/mL) | 16.7 | Cc1c(C(=O)Nc2c(C)n(C)n(-c3ccccc3F)c2=O)noc1-c1ccc(Cl)cc1Cl | 
1000 | 1600 | 22 (≈ 9.6 µg/mL) | 15.8 | COc1ccc(-c2onc(C(=O)Nc3c(C)n(C)n(-c4ccccc4F)c3=O)c2C)cc1 | 
> 10000 | > 22000 |  |  | COc1ccc(-c2cc(C(=O)Nc3c(C)n(C)n(-c4ccccc4)c3=O)no2)cc1 | 
200 | 600 |  |  | COc1ccc2c(c1)CCCc1c(C(=O)Nc3c(C)n(C)n(-c4ccccc4F)c3=O)noc1-2 | 
